Laboratory results from ChEMBL document CHEMBL6083227, “Novel sulfonamides unveiled as potent anti-lung cancer agents via tumor pyruvate kinase M2 activation” (RSC Med Chem, 2024).
pEC50, pIC50: −log10 of the molar value.

Key:
A549 = assay: Antiproliferative activity against human A549 cells incubated for 48 hrs by Alamar blue staining based assay; details: A549, 48 h
BEAS-2B = assay: Antiproliferative activity against human BEAS-2B cells incubated for 48 hrs by Alamar blue staining based assay
Pyruvate kinase PKM = Pyruvate kinase PKM (Homo sapiens, UniProt P14618); assay: Activation of recombinant human PKM2 using pyruvate as substrate measured for 20 mins in presence of beta-NADH by LDH-coupled assay
Pyruvate kinase PKM, sequence (P14618 whole entry): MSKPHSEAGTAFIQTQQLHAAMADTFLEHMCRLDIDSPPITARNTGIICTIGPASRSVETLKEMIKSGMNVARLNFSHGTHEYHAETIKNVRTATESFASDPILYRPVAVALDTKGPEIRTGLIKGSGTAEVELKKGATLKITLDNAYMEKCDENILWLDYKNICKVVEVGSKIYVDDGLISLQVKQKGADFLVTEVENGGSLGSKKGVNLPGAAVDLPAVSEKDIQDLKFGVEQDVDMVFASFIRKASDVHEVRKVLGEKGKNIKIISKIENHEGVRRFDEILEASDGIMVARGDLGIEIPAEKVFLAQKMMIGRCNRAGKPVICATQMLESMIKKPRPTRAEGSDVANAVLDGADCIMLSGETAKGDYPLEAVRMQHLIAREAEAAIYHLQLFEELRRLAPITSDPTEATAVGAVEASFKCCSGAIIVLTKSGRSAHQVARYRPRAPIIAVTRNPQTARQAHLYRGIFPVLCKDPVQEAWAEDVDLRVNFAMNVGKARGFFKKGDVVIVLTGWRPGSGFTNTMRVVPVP

Row | Structure (SMILES) | pIC50 (A549) | pEC50 (Pyruvate kinase PKM) | pIC50 (BEAS-2B)
1 | Nc1cccc(S(=O)(=O)N2CCCN(S(=O)(=O)c3ccc4c(c3)OCCO4)CC2)c1 | 5.84 |  | 4.45
2 | N#Cc1ccccc1S(=O)(=O)N1CCN(CC(=O)c2cnc3ccccn23)CC1 | 5.82 | 6.83 | 4.25
3 | COc1ccc(Br)cc1S(=O)(=O)N1CCN(CC(=O)c2cnc3ccccn23)CC1 | 5.84 | 6.48 | 4.51
4 | O=C(CN1CCN(S(=O)(=O)c2ccc(F)cc2)CC1)c1cnc2ccccn12 | 5.77 | 6.42 | 4.28
5 | O=C(CN1CCN(S(=O)(=O)c2cccs2)CC1)c1cnc2ccccn12 | 5.94 | 6.87 | 4.52
6 | O=C(CN1CCN(S(=O)(=O)c2ccc([N+](=O)[O-])cc2)CC1)c1cnc2ccccn12 | 5.84 | 6.19 | 4.70
7 | COc1ccc(S(=O)(=O)N2CCN(CC(=O)c3cnc4ccccn34)CC2)cc1 | 5.74 | 7.38 | 4.34
8 | O=C(CN1CCN(S(=O)(=O)c2ccc(C(F)(F)F)cc2)CC1)c1cnc2ccccn12 | 5.89 | 6.26 | 4.21
9 | O=C(CN1CCN(S(=O)(=O)c2ccc(F)cc2Cl)CC1)c1cnc2ccccn12 | 6.02 | 6.69 | 4.42
10 | Cc1cc(C)c(S(=O)(=O)N2CCN(CC(=O)c3cnc4ccccn34)CC2)c(C)c1 | 5.77 | 6.74 | 4.94
11 | COc1ccc(-c2ccc(S(=O)(=O)N3CCN(CC(=O)c4cnc5ncccn45)CC3)cc2)cc1 | 5.80 | 6.36 | 5.04
12 | O=C(CN1CCN(S(=O)(=O)C2CCCCC2)CC1)c1cnc2ccccn12 | 5.78 | 6.05 | 4.22
13 | O=C(CN1CCN(S(=O)(=O)c2ccccc2)CC1)c1cnc2ccccn12 | 5.77 | 6.85 | 4.35
14 | COc1cccc2c1C(=O)c1c(O)c3c(c(O)c1C2=O)C[C@@](O)(C(=O)CO)C[C@@H]3O[C@H]1C[C@H](N)[C@H](O)[C@H](C)O1 [DOXORUBICIN] | 5.79 |  | 4.61

Now from value to molecule, other results behind:

Row | pIC50 (A549) | pEC50 (Pyruvate kinase PKM) | Structure (SMILES) | pIC50 (BEAS-2B)
15 | 5.91 | 6.68 | O=C(CN1CCN(S(=O)(=O)c2ccc(C(F)(F)F)cc2)CC1)c1cnc2ncccn12 | 4.80
16 | 5.94 | 6.20 | O=C(CN1CCN(S(=O)(=O)c2cccc(Br)c2)CC1)c1cnc2ncccn12 | 4.41
17 | 5.75 | 7.04 | O=C(CN1CCN(S(=O)(=O)C2CC2)CC1)c1cnc2ncccn12 | 4.27
18 | 6.00 | 6.98 | Cc1ccc(S(=O)(=O)N2CCN(CC(=O)c3cnc4ncccn34)CC2)cc1 | 4.40
19 | 5.76 | 6.21 | O=C(CN1CCN(S(=O)(=O)c2ccc(F)cc2Cl)CC1)c1cnc2ncccn12 | 4.78
20 | 5.90 | 6.19 | O=C(CN1CCN(S(=O)(=O)c2cc(F)ccc2F)CC1)c1cnc2ncccn12 | 4.58
21 | 5.78 | 6.22 | O=C(CN1CCN(S(=O)(=O)c2cccc(Br)c2)CC1)c1cnc2ccccn12 | 4.40
